Series [1] is described as follows: Oral bioavailability in rat at 10 mg/kg. It is filed as ADME, organism-based. Conditions: in vivo.
Series [2] is described as follows: AUC in rat at 1 mg/kg, iv. It is filed as ADME, organism-based. Further details: dose 1 mg/kg, route intravenous. Conditions: plasma.
Series [3] can be described thus: AUC in rat at 10 mg/kg, po. It is filed as ADME, organism-based. Further details: dose 10 mg/kg, route oral. To be noted: plasma.
Series [4] concerns the target T1, Muscarinic acetylcholine receptor M1 (Homo sapiens) (UniProt P11229).
T1 sequence (whole entry): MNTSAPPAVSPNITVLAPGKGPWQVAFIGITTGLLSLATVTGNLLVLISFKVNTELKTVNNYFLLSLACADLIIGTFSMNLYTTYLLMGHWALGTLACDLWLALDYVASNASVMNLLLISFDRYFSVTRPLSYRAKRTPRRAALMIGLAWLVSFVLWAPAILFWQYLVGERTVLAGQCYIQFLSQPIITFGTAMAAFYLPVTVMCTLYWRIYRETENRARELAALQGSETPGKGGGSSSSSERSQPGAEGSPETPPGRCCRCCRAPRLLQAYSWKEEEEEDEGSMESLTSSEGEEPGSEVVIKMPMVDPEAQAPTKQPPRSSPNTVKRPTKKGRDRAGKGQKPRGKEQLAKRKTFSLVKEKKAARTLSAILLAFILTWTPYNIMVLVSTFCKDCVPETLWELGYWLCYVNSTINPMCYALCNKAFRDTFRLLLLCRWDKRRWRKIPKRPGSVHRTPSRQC
The series is described as follows: Agonist activity at human muscarinic M1 receptor expressed in TREx293 cells assessed as increase of soluble APPalpha release at 2 uM. Conditions: HEK293. It is filed as functional, cell-based.

In series [5] the target is T2, Muscarinic acetylcholine receptor M2 (Homo sapiens) (UniProt P08172).
T2 sequence (whole entry): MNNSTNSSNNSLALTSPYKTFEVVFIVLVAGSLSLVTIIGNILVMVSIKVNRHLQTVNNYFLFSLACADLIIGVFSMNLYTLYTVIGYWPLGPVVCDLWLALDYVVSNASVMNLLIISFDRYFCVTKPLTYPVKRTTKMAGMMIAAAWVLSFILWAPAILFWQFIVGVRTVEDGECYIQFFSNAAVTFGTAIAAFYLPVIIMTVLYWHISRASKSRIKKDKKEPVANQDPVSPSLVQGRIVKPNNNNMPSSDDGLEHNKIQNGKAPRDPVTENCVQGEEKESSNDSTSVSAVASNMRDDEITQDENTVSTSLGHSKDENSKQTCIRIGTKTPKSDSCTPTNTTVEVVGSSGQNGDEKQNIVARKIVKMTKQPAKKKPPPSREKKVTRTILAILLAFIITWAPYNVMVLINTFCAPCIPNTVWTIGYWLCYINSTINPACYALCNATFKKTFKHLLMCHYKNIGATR
The series is described as follows: Agonist activity at human muscarinic M2 receptor at 30 uM by calcium mobilization assay relative to acetylcholine. In kind it is functional.

Series [6] is described as follows: Clearance in rat at 1 mg/kg, iv and 10 mg/kg, po. It is filed as ADME, organism-based. Conditions: in vivo.
For series [7], the target named is T3, Muscarinic acetylcholine receptor M5 (Homo sapiens) (UniProt P08912).
T3 sequence (whole entry): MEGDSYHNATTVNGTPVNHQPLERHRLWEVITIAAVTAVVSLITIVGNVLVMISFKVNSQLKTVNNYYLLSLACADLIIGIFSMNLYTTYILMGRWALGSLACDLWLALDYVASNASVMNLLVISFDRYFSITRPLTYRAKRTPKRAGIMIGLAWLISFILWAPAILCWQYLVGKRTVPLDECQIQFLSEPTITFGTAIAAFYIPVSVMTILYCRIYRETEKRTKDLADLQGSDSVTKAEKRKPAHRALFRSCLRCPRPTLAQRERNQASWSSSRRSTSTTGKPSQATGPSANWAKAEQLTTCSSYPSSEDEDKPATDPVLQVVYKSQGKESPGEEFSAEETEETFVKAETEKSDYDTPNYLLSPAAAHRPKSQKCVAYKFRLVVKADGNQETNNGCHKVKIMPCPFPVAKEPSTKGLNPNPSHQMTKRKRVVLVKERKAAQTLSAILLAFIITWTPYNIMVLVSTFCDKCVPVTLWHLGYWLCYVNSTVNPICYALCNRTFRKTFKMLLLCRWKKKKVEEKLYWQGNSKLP
The series is described as follows: Agonist activity at human muscarinic M5 receptor at 30 uM by calcium mobilization assay relative to acetylcholine. In kind it is functional.

Series [8] can be described thus: Half life in rat at 1 mg/kg, iv and 10 mg/kg, po. It is filed as ADME, organism-based. To be noted: in vivo.
A short description of series [9]: Volume of distribution at steady state in rat at 1 mg/kg, iv and 10 mg/kg, po. In kind it is ADME, organism-based. To be noted: in vivo, read-out: Vdss.
Series [10] concerns the target T4, Muscarinic acetylcholine receptor M1 (Homo sapiens, UniProt P11229).
T4 sequence (P11229 whole entry): T1 sequence (whole entry)
The series is described as follows: Agonist activity at human muscarinic M1 receptor by calcium mobilization assay. In kind it is functional.

The target in series [11] is T5, Muscarinic acetylcholine receptor M2 (Homo sapiens, UniProt P08172).
T5 sequence (P08172 whole entry): T2 sequence (whole entry)
The series is described as follows: Agonist activity at human muscarinic M2 receptor by calcium mobilization assay. In kind it is functional. To be noted: read-out: EC50.

The target in series [12] is T1, Muscarinic acetylcholine receptor M1 (Homo sapiens). Nature of the series: Agonist activity at human muscarinic M1 receptor at 30 uM by calcium mobilization assay relative to acetylcholine. In kind it is functional.
Series [13] has as its target T6, Muscarinic acetylcholine receptor M5 (Homo sapiens, UniProt P08912).
T6 sequence (P08912 whole entry): T3 sequence (whole entry)
The series is described as follows: Agonist activity at human muscarinic M5 receptor by calcium mobilization assay. It is filed as functional. Conditions: read-out: EC50.

For series [14], the target named is T7, Muscarinic acetylcholine receptor M4 (Homo sapiens) (UniProt P08173).
T7 sequence (whole entry): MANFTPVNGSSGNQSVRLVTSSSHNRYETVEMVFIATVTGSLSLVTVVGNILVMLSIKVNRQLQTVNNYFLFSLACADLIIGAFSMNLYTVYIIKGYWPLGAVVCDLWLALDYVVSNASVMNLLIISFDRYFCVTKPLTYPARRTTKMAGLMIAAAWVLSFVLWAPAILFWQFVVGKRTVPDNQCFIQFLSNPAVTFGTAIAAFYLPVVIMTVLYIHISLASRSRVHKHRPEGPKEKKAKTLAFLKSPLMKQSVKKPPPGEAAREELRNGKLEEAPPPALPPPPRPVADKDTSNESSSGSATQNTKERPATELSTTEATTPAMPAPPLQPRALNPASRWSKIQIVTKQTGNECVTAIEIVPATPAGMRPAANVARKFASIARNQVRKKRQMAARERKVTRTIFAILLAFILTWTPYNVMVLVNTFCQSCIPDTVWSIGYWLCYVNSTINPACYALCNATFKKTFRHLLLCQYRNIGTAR
The series is described as follows: Agonist activity at human muscarinic M4 receptor at 30 uM by calcium mobilization assay relative to acetylcholine. It is filed as functional.

Series [15] concerns the target T8, Muscarinic acetylcholine receptor M3 (Homo sapiens, UniProt P20309). The series is described as follows: Agonist activity at human muscarinic M3 receptor at 30 uM by calcium mobilization assay relative to acetylcholine. In kind it is functional.
Target sequence in this assay (P20309 whole entry, looked up): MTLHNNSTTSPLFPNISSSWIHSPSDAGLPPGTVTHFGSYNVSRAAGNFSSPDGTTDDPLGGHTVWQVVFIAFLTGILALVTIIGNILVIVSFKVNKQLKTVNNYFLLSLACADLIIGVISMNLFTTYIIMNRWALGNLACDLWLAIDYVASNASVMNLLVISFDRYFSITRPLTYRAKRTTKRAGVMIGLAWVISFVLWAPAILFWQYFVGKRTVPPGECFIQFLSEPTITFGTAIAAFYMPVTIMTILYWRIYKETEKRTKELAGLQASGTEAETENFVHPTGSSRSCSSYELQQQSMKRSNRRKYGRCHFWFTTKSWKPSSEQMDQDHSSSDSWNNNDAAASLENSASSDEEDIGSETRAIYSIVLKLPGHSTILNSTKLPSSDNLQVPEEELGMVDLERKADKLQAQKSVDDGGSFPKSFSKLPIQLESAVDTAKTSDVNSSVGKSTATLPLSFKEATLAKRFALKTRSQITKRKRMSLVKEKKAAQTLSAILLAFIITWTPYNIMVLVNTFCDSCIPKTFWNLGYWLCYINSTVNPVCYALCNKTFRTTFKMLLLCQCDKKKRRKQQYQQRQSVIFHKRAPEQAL
The target in series [16] is Muscarinic acetylcholine receptors; M1 & M2 (Homo sapiens) (UniProt P11229+P08172). Nature of the series: Selectivity ratio of EC50 for human muscarinic M2 receptor to EC50 for human muscarinic M1 receptor.
Series [17] addresses T1, Muscarinic acetylcholine receptor M1 (Homo sapiens). Nature of the series: Agonist activity at human muscarinic M1 receptor at 30 uM relative to acetylcholine. In kind it is functional.
In series [18] the target is T9, Muscarinic acetylcholine receptor M4 (Homo sapiens, UniProt P08173).
T9 sequence (P08173 whole entry): T7 sequence (whole entry)
The series is described as follows: Agonist activity at human muscarinic M4 receptor by calcium mobilization assay. It is filed as functional. Conditions: read-out: EC50.

In series [19] the target is T4, Muscarinic acetylcholine receptor M1. Nature of the series: Agonist activity at human muscarinic M1 receptor. In kind it is functional. To be noted: read-out: EC50.
For series [20], the target named is T8, Muscarinic acetylcholine receptor M3. The series is described as follows: Agonist activity at human muscarinic M3 receptor by calcium mobilization assay. It is filed as functional. To be noted: read-out: EC50.
Target sequence in this assay (P20309 whole entry): as the sequence (P20309 whole entry, looked up) above

pEC50: −log10 of the molar value. Calls of active or inactive are those of the source. The rule behind the calls is not given here.

For the compound `CCOC(=O)N1C2CCC1CC(N1CCC[C@@H](NC(=O)c3ccccc3C)C1)C2` (mixture of isomers), the bioavailability in [1] was determined as 70%. For the same compound, the AUC in series [2] is 92.2 ng·h/mL; in series [3], 639 ng·h/mL. Also, the outcome in series [4] was Active. In addition, the Activity in series [5] is 66%; in [7], 62%; in series [12] it was 59%; in [14] it was 28%; in [15], 36%; in series [17], 75%. In series [6], the clearance came out at 189 mL/min/kg. Also, the half-life in [8] worked out at 46 min. Also, in series [9], the Vd was 11.8 L/kg. Besides, the pEC50 is 7.77 in [10]; 5.74 in series [11]; 5.43 in series [13]; < 5.00 in series [18]; 7.23 in series [19]; < 5.00 in series [20]. Moreover, the Ratio EC50 in series [16] was found to be 100.
